Assay results published in the supplement of paper PMC13386468.

Tests used:
Assay in all cases: IC50 for competition of protein binding to Kinobeads
Settings in all cases: assay detail: Kinobeads competition in P. falciparum blood-stage lysate
UniProt C0H4C5 = biological target: UniProt C0H4C5
UniProt C0H4S5 = biological target: UniProt C0H4S5
UniProt C0H4Z7 = biological target: UniProt C0H4Z7
UniProt C0H5L6 = biological target: UniProt C0H5L6
UniProt C6KSY0 = biological target: UniProt C6KSY0
UniProt C6KT18 = biological target: UniProt C6KT18
UniProt C6KT34 = biological target: UniProt C6KT34
UniProt C6KTA7 = biological target: UniProt C6KTA7
UniProt O96203 = biological target: UniProt O96203
UniProt O96210 = biological target: UniProt O96210
UniProt O97256 = biological target: UniProt O97256
UniProt Q8I0V2 = biological target: UniProt Q8I0V2
UniProt Q8I206 = biological target: UniProt Q8I206
UniProt Q8I2I8 = biological target: UniProt Q8I2I8
UniProt Q8I2P8 = biological target: UniProt Q8I2P8
UniProt Q8I305 = biological target: UniProt Q8I305
UniProt Q8I3K7 = biological target: UniProt Q8I3K7
UniProt Q8I479 = biological target: UniProt Q8I479
UniProt Q8I4V8 = biological target: UniProt Q8I4V8
UniProt Q8I4V8, sequence (Q8I4V8 whole entry): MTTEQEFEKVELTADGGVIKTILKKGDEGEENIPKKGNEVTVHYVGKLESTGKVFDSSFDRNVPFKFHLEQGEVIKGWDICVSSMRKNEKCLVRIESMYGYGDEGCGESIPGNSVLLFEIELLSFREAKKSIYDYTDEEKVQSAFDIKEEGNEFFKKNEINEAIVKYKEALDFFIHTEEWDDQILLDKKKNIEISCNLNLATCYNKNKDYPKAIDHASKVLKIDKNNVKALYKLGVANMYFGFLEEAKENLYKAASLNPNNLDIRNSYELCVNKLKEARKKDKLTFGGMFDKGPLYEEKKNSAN

UniProt Q8I512 = biological target: UniProt Q8I512
UniProt Q8I535 = biological target: UniProt Q8I535
UniProt Q8I586 = biological target: UniProt Q8I586
UniProt Q8I5C5 = biological target: UniProt Q8I5C5
UniProt Q8I5D5 = biological target: UniProt Q8I5D5
UniProt Q8I5S7 = biological target: UniProt Q8I5S7
UniProt Q8I6S4 = biological target: UniProt Q8I6S4
UniProt Q8IAV1 = biological target: UniProt Q8IAV1
UniProt Q8IB31 = biological target: UniProt Q8IB31
UniProt Q8IBL5 = biological target: UniProt Q8IBL5
UniProt Q8IBT2 = biological target: UniProt Q8IBT2
UniProt Q8IDN4 = biological target: UniProt Q8IDN4
UniProt Q8IDN4, sequence (Q8IDN4 whole entry): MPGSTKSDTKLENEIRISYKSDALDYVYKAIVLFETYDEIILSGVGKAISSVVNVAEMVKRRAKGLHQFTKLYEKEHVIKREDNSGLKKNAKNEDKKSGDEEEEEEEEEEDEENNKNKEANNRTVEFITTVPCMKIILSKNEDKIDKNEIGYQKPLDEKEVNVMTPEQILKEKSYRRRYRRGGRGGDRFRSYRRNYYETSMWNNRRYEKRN

UniProt Q8IIC0 = biological target: UniProt Q8IIC0
UniProt Q8IID2 = biological target: UniProt Q8IID2
UniProt Q8IIE7 = biological target: UniProt Q8IIE7
UniProt Q8IIR7 = biological target: UniProt Q8IIR7
UniProt Q8IIR7, sequence (Q8IIR7 whole entry): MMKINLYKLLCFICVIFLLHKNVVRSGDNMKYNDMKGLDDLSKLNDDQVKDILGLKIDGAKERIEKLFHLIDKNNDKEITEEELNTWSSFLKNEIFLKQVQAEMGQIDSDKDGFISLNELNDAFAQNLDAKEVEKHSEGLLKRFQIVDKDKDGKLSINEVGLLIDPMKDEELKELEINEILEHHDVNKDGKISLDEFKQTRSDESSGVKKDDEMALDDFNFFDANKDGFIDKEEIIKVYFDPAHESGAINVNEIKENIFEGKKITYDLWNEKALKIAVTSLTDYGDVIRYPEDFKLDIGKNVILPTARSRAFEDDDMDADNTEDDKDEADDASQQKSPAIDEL

UniProt Q8IIR9 = biological target: UniProt Q8IIR9
UniProt Q8IJA4 = biological target: UniProt Q8IJA4
UniProt Q8IJP8 = biological target: UniProt Q8IJP8
UniProt Q8IKF6 = biological target: UniProt Q8IKF6
UniProt Q8IKS6 = biological target: UniProt Q8IKS6
UniProt Q8IKU0 = biological target: UniProt Q8IKU0
UniProt Q8IKU0, sequence (Q8IKU0 whole entry): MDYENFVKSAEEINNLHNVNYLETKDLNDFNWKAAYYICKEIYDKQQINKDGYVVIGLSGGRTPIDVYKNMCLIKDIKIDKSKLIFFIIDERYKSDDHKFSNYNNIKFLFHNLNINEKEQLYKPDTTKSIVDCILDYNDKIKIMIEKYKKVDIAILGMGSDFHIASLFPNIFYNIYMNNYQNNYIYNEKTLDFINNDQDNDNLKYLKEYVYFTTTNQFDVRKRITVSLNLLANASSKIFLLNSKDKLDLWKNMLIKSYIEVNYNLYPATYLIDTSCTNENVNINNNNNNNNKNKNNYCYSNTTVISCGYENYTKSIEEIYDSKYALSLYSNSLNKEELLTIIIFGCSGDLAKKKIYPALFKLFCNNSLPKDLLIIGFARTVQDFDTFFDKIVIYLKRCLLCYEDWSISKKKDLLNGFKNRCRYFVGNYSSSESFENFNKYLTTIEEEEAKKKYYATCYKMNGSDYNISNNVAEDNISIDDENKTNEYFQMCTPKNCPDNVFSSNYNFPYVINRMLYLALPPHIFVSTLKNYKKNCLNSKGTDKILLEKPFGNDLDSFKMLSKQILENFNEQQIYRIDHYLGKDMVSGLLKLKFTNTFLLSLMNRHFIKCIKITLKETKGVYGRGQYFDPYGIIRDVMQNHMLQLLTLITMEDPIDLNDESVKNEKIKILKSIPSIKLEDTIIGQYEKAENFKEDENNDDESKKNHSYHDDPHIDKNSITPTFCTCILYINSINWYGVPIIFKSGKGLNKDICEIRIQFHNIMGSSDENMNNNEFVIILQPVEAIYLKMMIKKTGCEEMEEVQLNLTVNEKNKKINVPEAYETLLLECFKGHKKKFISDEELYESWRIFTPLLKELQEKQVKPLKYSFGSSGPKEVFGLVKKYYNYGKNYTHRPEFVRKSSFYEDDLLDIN

UniProt Q8IKZ8 = biological target: UniProt Q8IKZ8
UniProt Q8IL58 = biological target: UniProt Q8IL58
UniProt Q8IL80 = biological target: UniProt Q8IL80
UniProt Q8ILB6 = biological target: UniProt Q8ILB6
UniProt Q8ILF0 = biological target: UniProt Q8ILF0
UniProt Q8ILJ7 = biological target: UniProt Q8ILJ7
UniProt Q8ILS0 = biological target: UniProt Q8ILS0
UniProt Q8ILT5 = biological target: UniProt Q8ILT5
UniProt Q8ILT5, sequence (Q8ILT5 whole entry): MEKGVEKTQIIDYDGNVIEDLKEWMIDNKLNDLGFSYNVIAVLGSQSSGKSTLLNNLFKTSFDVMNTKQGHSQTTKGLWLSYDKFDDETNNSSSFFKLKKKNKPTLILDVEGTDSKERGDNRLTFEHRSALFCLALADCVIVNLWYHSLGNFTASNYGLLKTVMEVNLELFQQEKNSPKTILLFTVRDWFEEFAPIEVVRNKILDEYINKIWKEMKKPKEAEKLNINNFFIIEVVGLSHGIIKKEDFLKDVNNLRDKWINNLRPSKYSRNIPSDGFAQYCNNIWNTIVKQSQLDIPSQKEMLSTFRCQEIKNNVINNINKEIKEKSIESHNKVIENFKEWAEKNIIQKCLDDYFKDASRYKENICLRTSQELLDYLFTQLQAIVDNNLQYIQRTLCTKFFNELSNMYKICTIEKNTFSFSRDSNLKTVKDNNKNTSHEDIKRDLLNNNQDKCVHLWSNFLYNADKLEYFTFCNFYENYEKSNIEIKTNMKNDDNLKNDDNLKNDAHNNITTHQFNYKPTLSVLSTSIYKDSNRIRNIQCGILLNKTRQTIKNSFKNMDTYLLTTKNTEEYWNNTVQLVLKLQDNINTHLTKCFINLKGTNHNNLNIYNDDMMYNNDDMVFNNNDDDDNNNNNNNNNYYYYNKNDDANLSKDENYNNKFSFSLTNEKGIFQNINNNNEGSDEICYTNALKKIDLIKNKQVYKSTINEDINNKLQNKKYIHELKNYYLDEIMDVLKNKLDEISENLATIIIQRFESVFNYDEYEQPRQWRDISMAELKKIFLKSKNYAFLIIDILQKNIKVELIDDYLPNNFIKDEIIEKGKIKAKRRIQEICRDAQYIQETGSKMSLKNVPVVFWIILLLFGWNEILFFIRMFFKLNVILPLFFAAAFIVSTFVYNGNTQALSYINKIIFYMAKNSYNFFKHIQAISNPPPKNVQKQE

UniProt Q8IM55 = biological target: UniProt Q8IM55
UniProt Q9TY94 = biological target: UniProt Q9TY94
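Note: native unpurified kinases from lysate captured on beads bearing immobilized kinase inhibitors, with bead-bound kinases quantified by mass spectrometry across compound doses.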

With `O=c1[nH]c2ccc(Cl)cc2c(NC2CN3CCC2CC3)c1-c1nc2ccccc2[nH]1` (stereo unspecified) [CHIR-124] as the compound, how does the IC50 (UniProt C0H4C5) read?
The IC50 was > 20 µM.

What about the IC50 (UniProt C0H4S5) of the same compound?
Its IC50 is > 20 µM.

And the IC50 (UniProt C0H4Z7)?
Its IC50 is > 20 µM.

And the IC50 (UniProt C0H5L6)?
Its IC50 is > 20 µM.

And the IC50 (UniProt C6KSY0)?
The IC50 was > 20 µM.

And the IC50 (UniProt C6KT18)?
Its IC50 is > 20 µM.

And the IC50 (UniProt C6KT34)?
The IC50 was > 20 µM.

What about the IC50 (UniProt C6KTA7) of the same compound?
Its IC50 is > 20 µM.

What about the IC50 (UniProt O96203) of the same compound?
The IC50 was > 20 µM.

And the IC50 (UniProt O96210)?
The IC50 was > 20 µM.

What about the IC50 (UniProt O97256) of the same compound?
Its IC50 is > 20 µM.

What about the IC50 (UniProt Q8I0V2) of the same compound?
The IC50 was > 20 µM.

And the IC50 (UniProt Q8I206)?
The IC50 was > 20 µM.

What about the IC50 (UniProt Q8I2I8) of the same compound?
Its IC50 is > 20 µM.

And the IC50 (UniProt Q8I2P8)?
Its IC50 is > 20 µM.

And the IC50 (UniProt Q8I305)?
Its IC50 is > 20 µM.

And the IC50 (UniProt Q8I3K7)?
The IC50 was > 20 µM.

And the IC50 (UniProt Q8I479)?
Its IC50 is > 20 µM.

What about the IC50 (UniProt Q8I4V8) of the same compound?
The IC50 was > 20 µM.

And the IC50 (UniProt Q8I512)?
The IC50 was > 20 µM.

And the IC50 (UniProt Q8I535)?
Its IC50 is < 0.0823 µM.

And the IC50 (UniProt Q8I586)?
Its IC50 is > 20 µM.

What about the IC50 (UniProt Q8I5C5) of the same compound?
Its IC50 is > 20 µM.

What about the IC50 (UniProt Q8I5D5) of the same compound?
Its IC50 is > 20 µM.

What about the IC50 (UniProt Q8I5S7) of the same compound?
The IC50 was > 20 µM.

What about the IC50 (UniProt Q8I6S4) of the same compound?
Its IC50 is > 20 µM.

And the IC50 (UniProt Q8IAV1)?
Its IC50 is > 20 µM.

What about the IC50 (UniProt Q8IB31) of the same compound?
The IC50 was > 20 µM.

And the IC50 (UniProt Q8IBL5)?
Its IC50 is > 20 µM.

And the IC50 (UniProt Q8IBT2)?
The IC50 was > 20 µM.

What about the IC50 (UniProt Q8IDN4) of the same compound?
The IC50 was > 20 µM.

And the IC50 (UniProt Q8IIC0)?
The IC50 was > 20 µM.

What about the IC50 (UniProt Q8IID2) of the same compound?
The IC50 was > 20 µM.

What about the IC50 (UniProt Q8IIE7) of the same compound?
Its IC50 is 0.177 µM.

What about the IC50 (UniProt Q8IIR7) of the same compound?
The IC50 was > 20 µM.

And the IC50 (UniProt Q8IIR9)?
The IC50 was > 20 µM.

What about the IC50 (UniProt Q8IJA4) of the same compound?
Its IC50 is > 20 µM.

And the IC50 (UniProt Q8IJP8)?
Its IC50 is > 20 µM.

What about the IC50 (UniProt Q8IKF6) of the same compound?
The IC50 was > 20 µM.

What about the IC50 (UniProt Q8IKS6) of the same compound?
Its IC50 is > 20 µM.

What about the IC50 (UniProt Q8IKU0) of the same compound?
The IC50 was > 20 µM.

And the IC50 (UniProt Q8IKZ8)?
Its IC50 is > 20 µM.

And the IC50 (UniProt Q8IL58)?
Its IC50 is > 20 µM.

What about the IC50 (UniProt Q8IL80) of the same compound?
Its IC50 is > 20 µM.

And the IC50 (UniProt Q8ILB6)?
Its IC50 is > 20 µM.

What about the IC50 (UniProt Q8ILF0) of the same compound?
The IC50 was > 20 µM.

What about the IC50 (UniProt Q8ILJ7) of the same compound?
Its IC50 is > 20 µM.

And the IC50 (UniProt Q8ILS0)?
The IC50 was > 20 µM.

What about the IC50 (UniProt Q8ILT5) of the same compound?
Its IC50 is > 20 µM.

And the IC50 (UniProt Q8IM55)?
Its IC50 is > 20 µM.

And the IC50 (UniProt Q9TY94)?
Its IC50 is > 20 µM.
